Measured values from patent US8258311B2, “Human protein tyrosine phosphatase inhibitors and methods of use” (Aerpio Therapeutics Inc., priority 2006, dated 2012).

Experiments:
HPTPβ = HPTPβ (Homo sapiens, UniProt P23467); assay: HPTPβ inhibition (IC50); type: biochemical
PTP1B = target: T1, PTP1B (Homo sapiens, UniProt P18031); assay: PTP1B inhibition (IC50); type: biochemical
T1 sequence (P18031 1-435): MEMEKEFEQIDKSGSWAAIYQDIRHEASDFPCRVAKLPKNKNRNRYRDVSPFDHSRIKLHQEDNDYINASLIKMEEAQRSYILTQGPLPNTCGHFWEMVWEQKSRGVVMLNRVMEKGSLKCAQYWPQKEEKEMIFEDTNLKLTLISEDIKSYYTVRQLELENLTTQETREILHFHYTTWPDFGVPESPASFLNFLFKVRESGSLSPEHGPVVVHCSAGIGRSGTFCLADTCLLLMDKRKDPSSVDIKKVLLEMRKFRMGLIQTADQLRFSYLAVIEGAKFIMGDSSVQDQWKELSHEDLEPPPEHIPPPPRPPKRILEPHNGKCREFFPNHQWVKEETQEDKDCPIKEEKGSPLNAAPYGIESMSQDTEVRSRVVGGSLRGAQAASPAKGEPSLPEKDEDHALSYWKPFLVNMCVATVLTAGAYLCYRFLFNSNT

Sequence of HPTPβ (P23467 23-1997): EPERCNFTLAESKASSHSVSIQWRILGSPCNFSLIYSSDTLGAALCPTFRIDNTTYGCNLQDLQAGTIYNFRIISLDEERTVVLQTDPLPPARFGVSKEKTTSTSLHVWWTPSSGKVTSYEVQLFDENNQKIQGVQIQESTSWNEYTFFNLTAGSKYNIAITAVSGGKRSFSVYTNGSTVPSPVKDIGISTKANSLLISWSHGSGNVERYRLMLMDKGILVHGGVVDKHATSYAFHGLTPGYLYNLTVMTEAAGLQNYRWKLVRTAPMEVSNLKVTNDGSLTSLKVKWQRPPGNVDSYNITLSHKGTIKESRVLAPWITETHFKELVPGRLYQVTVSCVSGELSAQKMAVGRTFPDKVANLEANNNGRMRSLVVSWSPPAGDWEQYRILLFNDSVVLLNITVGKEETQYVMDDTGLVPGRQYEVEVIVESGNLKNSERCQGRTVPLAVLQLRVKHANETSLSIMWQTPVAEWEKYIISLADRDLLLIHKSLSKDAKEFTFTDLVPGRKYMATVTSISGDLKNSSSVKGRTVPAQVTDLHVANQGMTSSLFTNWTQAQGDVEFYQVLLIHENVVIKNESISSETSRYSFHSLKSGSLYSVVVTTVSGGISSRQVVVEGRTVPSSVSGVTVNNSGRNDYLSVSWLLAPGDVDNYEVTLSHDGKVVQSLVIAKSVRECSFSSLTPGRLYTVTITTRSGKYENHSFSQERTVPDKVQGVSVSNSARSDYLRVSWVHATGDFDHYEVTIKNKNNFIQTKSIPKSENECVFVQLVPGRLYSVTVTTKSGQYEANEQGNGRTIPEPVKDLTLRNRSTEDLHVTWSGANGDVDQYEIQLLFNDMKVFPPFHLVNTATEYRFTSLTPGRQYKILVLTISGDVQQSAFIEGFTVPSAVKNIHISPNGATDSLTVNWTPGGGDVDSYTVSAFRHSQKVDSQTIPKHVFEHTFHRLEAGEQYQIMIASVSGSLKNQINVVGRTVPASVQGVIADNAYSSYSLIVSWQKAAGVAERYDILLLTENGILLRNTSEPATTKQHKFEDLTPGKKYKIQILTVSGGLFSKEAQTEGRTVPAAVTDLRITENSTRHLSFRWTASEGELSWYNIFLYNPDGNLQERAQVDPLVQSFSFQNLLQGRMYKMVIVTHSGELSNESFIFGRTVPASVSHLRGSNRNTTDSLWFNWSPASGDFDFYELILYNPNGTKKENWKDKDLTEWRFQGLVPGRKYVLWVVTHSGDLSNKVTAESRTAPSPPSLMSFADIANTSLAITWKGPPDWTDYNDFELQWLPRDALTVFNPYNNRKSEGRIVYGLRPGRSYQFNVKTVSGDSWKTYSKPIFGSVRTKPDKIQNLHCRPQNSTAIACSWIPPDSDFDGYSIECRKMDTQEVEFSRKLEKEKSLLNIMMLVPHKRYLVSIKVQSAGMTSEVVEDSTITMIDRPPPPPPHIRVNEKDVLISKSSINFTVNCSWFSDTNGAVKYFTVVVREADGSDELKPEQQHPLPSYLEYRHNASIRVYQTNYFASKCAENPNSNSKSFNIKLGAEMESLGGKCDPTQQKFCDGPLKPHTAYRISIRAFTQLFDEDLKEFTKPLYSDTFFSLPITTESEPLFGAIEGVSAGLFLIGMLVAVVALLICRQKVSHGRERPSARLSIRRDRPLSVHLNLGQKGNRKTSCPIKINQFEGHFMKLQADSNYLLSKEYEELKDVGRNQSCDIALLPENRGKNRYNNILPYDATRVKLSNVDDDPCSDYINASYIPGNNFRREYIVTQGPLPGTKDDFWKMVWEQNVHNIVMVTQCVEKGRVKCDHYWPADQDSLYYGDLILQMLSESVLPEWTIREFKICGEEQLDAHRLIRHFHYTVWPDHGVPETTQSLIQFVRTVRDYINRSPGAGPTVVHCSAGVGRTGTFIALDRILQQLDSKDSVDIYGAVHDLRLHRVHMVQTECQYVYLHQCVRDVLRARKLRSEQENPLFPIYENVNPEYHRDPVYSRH

SMILES | IC50 (HPTPβ) [nM] | IC50 (PTP1B) [nM]
CC(=O)N[C@@H](Cc1ccccc1)C(=O)N[C@@H](Cc1ccc(NS(=O)(=O)O)cc1)c1nc(-c2ccsc2)cs1 [4-{(S)-2-((S)-2-Acetamido-3-phenylpropanamido)-2-[4-(thiophen-3-yl)thiazol-2-yl]ethyl}phenylsulfamic acid] | 0.24 | 1160
COC(=O)N[C@@H](Cc1ccccc1)C(=O)N[C@@H](Cc1ccc(NS(=O)(=O)O)cc1)c1csc(CS(=O)(=O)C(C)(C)C)n1 [4-{(S)-2-[2-(tert-Butylsulfonylmethyl)thiazol-4-yl]-2-[(S)-2-(methoxycarbonylamino)-3-phenylpropanamido]ethyl}phenylsulfamic acid] | 2 | 1210
CCc1csc([C@H](Cc2ccc(NS(=O)(=O)O)cc2)NC(=O)[C@@H](Cc2ccccc2)NC(=O)OC(C)(C)C)n1 [4-{(S)-2-[(R)-2-(tert-butoxycarbonylamino)-3-phenylpropanamido]-2-(4-ethylthiazol-2-yl)ethyl}phenylsulfamic acid] | 4 | 7120
CCOC(=O)N[C@@H](Cc1ccccc1)C(=O)N[C@@H](Cc1ccc(NS(=O)(=O)O)cc1)c1nc(CC)cs1 [4-{(S)-2-[(S)-2-(Ethoxycarbonylamino)-3-phenylpropanamido]-2-(4-ethylthiazol-2-yl)ethyl}phenylsulfamic acid] | 0.14 | 680
COC(=O)N[C@@H](Cc1ccccc1)C(=O)N[C@@H](Cc1ccc(NS(=O)(=O)O)cc1)c1nc(CCC(F)(F)F)cs1 [4-{(S)-2-[(S)-2-(Methoxycarbonylamino)-3-phenylpropanamido)-2-[4-(3,3,3-trifluoropropyl)thiazol-2-yl]ethyl}phenylsulfamic acid] | 0.08 | 120
CCc1nc([C@H](Cc2ccc(NS(=O)(=O)O)cc2)NC(=O)[C@H](Cc2ccccc2)NC(=O)OC)cs1 [4-{(S)-2-[(S)-2-(Methoxycarbonylamino)-3-phenylpropanamido]-2-(2-ethylthiazol-4-yl)ethyl}phenylsulfamic acid] | 0.1 | 1010
COC(=O)N[C@@H](Cc1ccccc1)C(=O)N[C@@H](Cc1ccc(NS(=O)(=O)O)cc1)c1csc(C)n1 [4-{(S)-2-[(S)-2-(Methoxycarbonylamino)-3-phenylpropanamido]-2-(2-methylthiazol-4-yl)ethyl}phenylsulfamic acid] | 1 | 1160
COC(=O)N[C@@H](Cc1ccccc1)C(=O)N[C@@H](Cc1ccc(NS(=O)(=O)O)cc1)c1nc2c(s1)CCCC2 [4-{(S)-2-[(S)-2-(Methoxycarbonylamino)-3-phenylpropanamido]-2-(4,5,6,7-tetrahydrobenzo[d]thiazol-2-yl)ethyl}phenylsulfamic acid] | 0.4 | 89
COC(=O)N[C@@H](Cc1ccccc1)C(=O)N[C@@H](Cc1ccc(NS(=O)(=O)O)cc1)c1nc(C)cs1 [4-{(S)-2-[(S)-2-(Methoxycarbonylamino)-3-phenylpropanamido]-2-(4-methylthiazol-2-yl)ethyl}phenylsulfamic acid] | 1 | 480
CCCc1csc([C@H](Cc2ccc(NS(=O)(=O)O)cc2)NC(=O)[C@H](Cc2ccccc2)NC(=O)OC)n1 [4-{(S)-2-[(S)-2-(Methoxycarbonylamino)-3-phenylpropanamido]-2-(4-propylthiazol-2-yl)ethyl}phenylsulfamic acid] | 0.1 | 1030
COC(=O)N[C@@H](Cc1ccccc1)C(=O)N[C@@H](Cc1ccc(NS(=O)(=O)O)cc1)c1ncc(-c2ccccc2)s1 [4-{(S)-2-[(S)-2-(Methoxycarbonylamino)-3-phenylpropanamido]-2-(5-phenylthiazol-2-yl)ethyl}phenylsulfamic acid] | 0.3 | 810
COC(=O)N[C@@H](Cc1ccccc1)C(=O)N[C@@H](Cc1ccc(NS(=O)(=O)O)cc1)c1nccs1 [4-{(S)-2-[(S)-2-(Methoxycarbonylamino)-3-phenylpropanamido]-2-(thiazol-2-yl)ethyl}phenylsulfamic acid] | 6 | 1020
COC(=O)N[C@@H](Cc1ccccc1)C(=O)N[C@@H](Cc1ccc(NS(=O)(=O)O)cc1)c1csc(-c2cnccn2)n1 [4-{(S)-2-[(S)-2-(Methoxycarbonylamino)-3-phenylpropanamido]-2-[2-(pyrazin-2-yl)thiazol-4-yl]ethyl}phenylsulfamic acid] | 3 | 295
COC(=O)N[C@@H](Cc1ccccc1)C(=O)N[C@@H](Cc1ccc(NS(=O)(=O)O)cc1)c1nc(CC(F)(F)F)cs1 [4-{(S)-2-[(S)-2-(Methoxycarbonylamino)-3-phenylpropanamido]-2-[4-(2,2,2-trifluoroethyl)thiazol-2-yl]ethyl}phenylsulfamic acid] | 0.3 | 1630
COCc1csc([C@H](Cc2ccc(NS(=O)(=O)O)cc2)NC(=O)[C@H](Cc2ccccc2)NC(=O)OC)n1 [4-{(S)-2-[(S)-2-(Methoxycarbonylamino)-3-phenylpropanamido]-2-[4-(methoxymethyl)thiazol-2-yl]ethyl}phenylsulfamic acid] | 1 | 640
COC(=O)N[C@@H](Cc1ccccc1)C(=O)N[C@@H](Cc1ccc(NS(=O)(=O)O)cc1)c1nc(-c2ccsc2)cs1 [4-{(S)-2-[(S)-2-(Methoxycarbonylamino)-3-phenylpropanamido]-2-[4-(thiophen-3-yl)thiazol-2-yl]ethyl}phenylsulfamic acid] | 0.09 | 440
CCc1csc([C@H](Cc2ccc(NS(=O)(=O)O)cc2)NC(=O)[C@H](CC(C)C)NC(=O)OC(C)(C)C)n1 [4-{(S)-2-[(S)-2-(tert-Butoxycarbonylamino)-4-methylpentanamido]-2-(4-ethylthiazol-2-yl)ethyl}phenylsulfamic acid] | 1 | 480
COC(=O)N[C@@H](Cc1ccccc1)C(=O)N[C@@H](Cc1ccc(NS(=O)(=O)O)cc1)c1csc(CS(=O)(=O)c2ccc(Cl)cc2)n1 [4-{(S)-2-{2-[(4-Chlorophenylsulfonyl)methyl]thiazol-4-yl}-2-[(S)-2-(methoxycarbonylamino)-3-phenylpropanamido]ethyl}phenylsulfamic acid] | 0.08 | 2540
COc1cccc(Cc2csc([C@H](Cc3ccc(NS(=O)(=O)O)cc3)NC(=O)C(C)(C)C)n2)c1 [(S)-4-(2-(4-(3-Methoxybenzyl)thiazol-2-yl)-2-pivalamidoethyl)phenylsulfamic acid] | 132 | 50000
CC(C)(C)C(=O)N[C@@H](Cc1ccc(NS(=O)(=O)O)cc1)c1nc(-c2ccc(-c3ccccc3)cc2)cs1 [(S)-4-(2-(4-(Biphen-4-yl)thiazol-2-yl)-2-pivalamidoethyl)phenylsulfamic acid] | 381 | 28600
CC(C)(C)C(=O)N[C@@H](Cc1ccc(NS(=O)(=O)O)cc1)c1nc(Cc2ccccc2)cs1 [(S)-4-(2-(4-Benzylthiazol-2-yl)-2-pivalamidoethyl)phenylsulfamic acid] | 113 | 38200
CCc1csc([C@H](Cc2ccc(NS(=O)(=O)O)cc2)NC(=O)C(C)(C)C)n1 [(S)-4-(2-(4-Ethylthiazol-2-yl)-2-pivalamidoethyl)phenyl-sulfamic acid] | 85 | 142000
CC(C)(C)C(=O)N[C@@H](Cc1ccc(NS(=O)(=O)O)cc1)c1nc(-c2ccccc2)cs1 [(S)-4-(2-(4-Phenylthiazol-2-yl)-2-pivalamidoethyl)phenylsulfamic acid] | 42 | 82300
Cc1sc([C@H](Cc2ccc(NS(=O)(=O)O)cc2)NC(=O)C(C)(C)C)nc1-c1ccccc1 [(S)-4-(2-(5-Methyl-4-phenylthiazol-2-yl)-2-pivalamidoethyl)phenylsulfamic acid] | 98 | 50500
CC(C)(C)OC(=O)N[C@@H](Cc1ccc(NS(=O)(=O)O)cc1)c1nc(CO)cs1 [(S)-4-(2-(tert-Butoxycarbonylamino)-2-(4-(hydroxymethyl)thiazol-2-yl)ethyl)phenylsulfamic acid] | 644 | 31600
COCc1csc([C@H](Cc2ccc(NS(=O)(=O)O)cc2)NC(=O)OC(C)(C)C)n1 [(S)-4-(2-(tert-Butoxycarbonylamino)-2-(4-(methoxymethyl)thiazol-2-yl)ethyl)-phenyl sulfamic acid] | 180 | 27600
CCCc1csc([C@H](Cc2ccc(NS(=O)(=O)O)cc2)NC(=O)OC(C)(C)C)n1 [(S)-4-(2-(tert-Butoxycarbonylamino)-2-(4-propylthiazol-2-yl)ethyl)phenyl sulfamic acid] | 40 | 35600
CC(C)(C)OC(=O)N[C@@H](Cc1ccc(NS(=O)(=O)O)cc1)c1nc(C(C)(C)C)cs1 [(S)-4-(2-(tert-Butoxycarbonylamino)-2-(4-tert-butylthiazol-2-yl)ethyl)phenyl sulfamic acid] | 27 | 50000
CC(C)(C)OC(=O)N[C@@H](Cc1ccc(NS(=O)(=O)O)cc1)c1ncc(-c2ccccc2)s1 [(S)-4-(2-(tert-Butoxycarbonylamino)-2-(5-phenylthiazol-2-yl)ethyl)-phenyl sulfamic acid] | 308 | 11400
CCc1csc([C@H](Cc2ccc(NS(=O)(=O)O)cc2)NC(=O)CNC(=O)OC)n1 [(S)-4-{2-(4-Ethylthiazol-2-yl)-2-[2-(methoxycarbonylamino)acetamido]ethyl}phenylsulfamic acid] | 20 | 5260
